Literature values in US6046167A, “Peptide YY analogs” (University of Cincinnati, priority 1998, dated 2000).

Tested on: rat small intestine
Conditions: voltage clamped preparations of rat small intestine; literature comparison

PYY: 36-residue peptide amide isolated originally from porcine intestine [Peptide YY]
antisecretory potency: greater antisecretory potency than NPY
